Measured values from US6395255B1, “Radiolabeled vasoactive intestinal peptide analogs for imaging and therapy” (Thomas Jefferson University, priority 1998, dated 2002).
Entries after “also recorded” stand apart in the source; their conditions may differ. Square brackets hold non-standard residues; d marks the D form. Ends that are not written are not given here. Peptide text beside a SMILES is read from it. GABA = NCCCC(=O)O

Legend:
[1] = test system: LS174T human colorectal tumor; assay: Tissue distribution and gamma camera imaging in nude mice bearing LS174T tumors; conditions: for delineation of tumor in gamma camera image: nude mice bearing LS174T tumor in right thigh, 24 h after injection
Description: Tissue Distribution Studies
(§1) The ability of ^99MTc-TP3654 to detect human colorectal carcinoma was examined in nude mice.
(§2) Human colorectal cancer cells LS 174T (ATCC) were grown in culture and 5×10^6 viable cells were implanted intramuscularly in the right thighs of athymic NCr nude mice that weighed 20-25 g. Tumors were grown to no more than 1 cm in diameter. Each animal received approximately 700 Ci of ^99mTc-TP3654 (1450 Ci/mrnol) in 200 1, of saline through a lateral tail vein. Exact activity injected was determined by measuring the syringe, before and after injection, in a calibrated ionization chamber (Capintech, Ramsey, N.J.). A suitable standard of ^99mTc was prepared at the time of injection.
(§3) At 4 or 24 h later, animals were killed and imaged using a GE STARCAM gamma camera (Milwaukee, Wis.) equipped with a low-energy parallel-hole collimator and a dedicated computer. Tissues were dissected and weighed, and associated radioactivity was counted (Packard 5000 series gamma counter), along with a standard, in duplicate. Results were calculated as percentage injected dose per gram of tissue (% ID/g) and were analyzed by using Student t test.
(§4) A tissue distribution study was performed in a manner similar to that for ^99mTc-TP3654.
(§5) For animal tissue distribution studies, a protocol similar to that for ^99mTc-TP3654 was followed.

[2] = as above; conditions: athymic NCr nude, mouse, iv, total radioactivity, 24 h postinjection, mean ± SD, n = 5; for tissue uptake at 24 h: Biodistribution
Description: Tissue Distribution Studies
as §1, §2, §3, §4, §5

[3] = format: physicochemical
Description: Stability of ^99mTc-TP3654 To measure the in vitro stability of ^99mTc-TP3654, a known quantity of the preparation was incubated at 37° C. for 24 h, with 100 molar excess of DTPA, HSA or cysteine. At 0, 5 and 24 h, samples were withdrawn for HPLC analysis and the radioactivity that was associated with the challenging agent and that remained as ^99mTc-TP3654 (Rt=11.8 min) was measured.

[4] = test system: LS174T human colorectal tumor; conditions: athymic NCr nude, mouse, in vivo, iv, 24 h
Description: Tissue Distribution Studies
as §1, §2, §3, §4, §5

in vivo [5] = conditions: athymic NCr nude, mouse, iv, total radioactivity; for tissue uptake at 4 h / tissue uptake at 24 h: Biodistribution
Description: Tissue Distribution Studies
as §1, §2, §3, §4, §5

[6] = parameters: species or system Sprague-Dawley rats; conditions: Sprague-Dawley, rat, in vivo, iv
Description: Blood Clearance in Rats Three Sprague-Dawley rats, each weighing approximately 250 g, were injected through a lateral tail vein with 1 mCi ^99mTcTP3654 and serial blood samples were drawn, in triplicate, through the other lateral tail vein at 1, 5, 10, 15 and 30 min and then at 1, 2, 4, 6, 18 and 24 h. Blood samples were weighed, radioactivity was counted with a standard ^99mTc solution prepared at the time of injection and the percentage injected dose per gram of blood was plotted as a function of time.

VIP receptor = assay: Receptor blocking with unlabeled VIP-28 or TP3654 in LS174T tumor-bearing nude mice; format: in vivo; conditions: 50 μg unlabeled peptide intravenously 30 min before tracer, 24 h, vs not pretreated mice
Description: Receptor Blocking […] Mice were killed 24 h later, and percentage injected dose per gram of tissues was determined. Data were compared to 24 h distribution in mice (n=5) given 700 μCi ^99mTc-TP3654 but not pretreated with unlabeled VIP or TP3654.

in vivo [7] = conditions: rat, total radioactivity
[8] = test system: internal anal sphincter (IAS) smooth muscle; assay: Functional assay using opossum internal anal sphincter smooth muscle strips (fall in resting tension); format: tissue-based, opossums (Didelphis virginiana); conditions: at 10^−6 mol/L; 100% = maximal relaxation with 5 mmol/L EDTA
colonic adenocarcinoma = conditions: cited from earlier work

C[C@@H](NC(=O)CN)C(=O)NCC(=O)NCC(=O)NCCCC(=O)O [^99mTc-G(D)AGG-Aba, metal not drawn] (H-G[dA]GG[GABA]-OH; N-terminus and C-terminus assumed)
Biodistribution, Kidney ([1]; kidney, 24 h postinjection, nude mice bearing LS174T tumors, mean ± SD, n = 5): 0.2±0.02 % ID/g
delineation of tumor in gamma camera image [1]: not delineated
delineation of tumor in gamma camera image ([1]; listed as 99mTc-G(D)AGG): not
tissue uptake at 24 h ([2]; blood, nude mice bearing LS174T tumors): 0.03 %ID/g
tissue uptake at 24 h ([2]; heart, nude mice bearing LS174T tumors): 0.01 %ID/g
tissue uptake at 24 h ([2]; kidney, nude mice bearing LS174T tumors): 0.2 ± 0.02 %ID/g
tissue uptake at 24 h ([2]; liver, nude mice bearing LS174T tumors): 0.16 ± 0.02 %ID/g
tissue uptake at 24 h ([2]; lung, nude mice bearing LS174T tumors): 0.03 %ID/g
tissue uptake at 24 h ([2]; muscle, nude mice bearing LS174T tumors): 0.01 %ID/g
tissue uptake at 24 h ([2]; small intestine, nude mice bearing LS174T tumors): 0.03 ± 0.01 %ID/g
tissue uptake at 24 h ([2]; spleen, nude mice bearing LS174T tumors): 0.06 ± 0.03 %ID/g
tissue uptake at 24 h ([2]; tumor, LS174T tumor, nude mice): 0.03 %ID/g
tissue to tissue ratio at 24 h ([2]; tumor/blood, T/B ratio (tumor-to-blood), nude mice bearing LS174T tumors): 0.77 ± 0.03
tissue to tissue ratio at 24 h ([2]; tumor/muscle, T/M ratio (tumor-to-muscle), nude mice bearing LS174T tumors): 1.88 ± 0.36

CC[C@H](C)[C@H](NC(=O)[C@H](CO)NC(=O)[C@H](CC(N)=O)NC(=O)[C@H](CC(C)C)NC(=O)[C@H](Cc1ccc(O)cc1)NC(=O)[C@H](CCCCN)NC(=O)[C@H](CCCCN)NC(=O)[C@@H](NC(=O)[C@H](C)NC(=O)[C@H](CCSC)NC(=O)[C@H](CCC(N)=O)NC(=O)[C@H](CCCCN)NC(=O)[C@H](CCCNC(=N)N)NC(=O)[C@H](CC(C)C)NC(=O)[C@H](CCCNC(=N)N)NC(=O)[C@@H](NC(=O)[C@H](Cc1ccc(O)cc1)NC(=O)[C@H](CC(N)=O)NC(=O)[C@H](CC(=O)O)NC(=O)[C@@H](NC(=O)[C@H](Cc1ccccc1)NC(=O)[C@@H](NC(=O)[C@H](C)NC(=O)[C@H](CC(=O)O)NC(=O)[C@H](CO)NC(=O)[C@@H](N)Cc1c[nH]cn1)C(C)C)[C@@H](C)O)[C@@H](C)O)C(C)C)C(=O)N[C@@H](CC(C)C)C(=O)N[C@@H](CC(N)=O)C(=O)NCCCC(=O)NCC(=O)NCC(=O)N[C@H](C)C(=O)NCC(=O)O [^99mTc-TP3654, metal not drawn]
stability on storage (HPLC) [3]: stable for up to 24 h
radioactivity displaced by challenge with 100 molar excess of DTPA, HSA or cysteine ([3]; 24 h of incubation at 37° C.): approximately 11%
Biodistribution, Tumor [4]: 0.23 ± 0.13 % ID/g
delineation of tumor in gamma camera image [1]: delineates the tumor and both kidneys; also recorded: clearly delineated
tissue uptake at 4 h (in vivo [5]; Blood): 0.21 ± 0.02 %ID/g
tissue uptake at 24 h (in vivo [5]; Blood): 0.12 ± 0.02 %ID/g
tissue uptake at 4 h (in vivo [5]; Heart): 0.1 %ID/g
tissue uptake at 24 h (in vivo [5]; Heart): 0.06 ± 0.01 %ID/g
tissue uptake at 4 h (in vivo [5]; Kidney): 19 ± 3.75 %ID/g
tissue uptake at 24 h (in vivo [5]; Kidney): 3.52 ± 0.4 %ID/g
tissue uptake at 4 h (in vivo [5]; Liver): 1.12 ± 0.08 %ID/g
tissue uptake at 24 h (in vivo [5]; Liver): 0.33 ± 0.04 %ID/g
tissue uptake at 4 h (in vivo [5]; Lung): 0.17 ± 0.01 %ID/g
tissue uptake at 24 h (in vivo [5]; Lung): 0.16 ± 0.09 %ID/g
tissue uptake at 4 h (in vivo [5]; Muscle): 0.09 ± 0.01 %ID/g
tissue uptake at 24 h (in vivo [5]; Muscle): 0.04 ± 0.01 %ID/g
tissue uptake at 4 h (in vivo [5]; Small intestine): 0.18 ± 0.05 %ID/g
tissue uptake at 24 h (in vivo [5]; Small intestine): 0.05 ± 0.01 %ID/g
tissue uptake at 4 h (in vivo [5]; Spleen): 0.19 ± 0.05 %ID/g
tissue uptake at 24 h (in vivo [5]; Spleen): 0.11 ± 0.02 %ID/g
tissue uptake at 4 h (in vivo [5]; Tumor): 0.24 ± 0.06 %ID/g
tissue uptake at 24 h (in vivo [5]; Tumor): 0.2 %ID/g
tissue to tissue ratio at 4 h (in vivo [5]; T/B ratio (tumor-to-blood)): 1.16 ± 0.29
tissue to tissue ratio at 24 h (in vivo [5]; T/B ratio (tumor-to-blood)): 1.98 ± 1.44
tissue to tissue ratio at 4 h (in vivo [5]; T/M ratio (tumor-to-muscle)): 2.73 ± 1.09
tissue to tissue ratio at 24 h (in vivo [5]; T/M ratio (tumor-to-muscle)): 6.28 ± 3.09
blood clearance α-t 1/2 [6]: approximately 5 min
blood clearance β-t½ [6]: approximately 120 min
uptake of ^99mTc-TP3654 after pretreatment with unlabeled TP3654 or VIP (VIP receptor): decreased in all VIP receptor-rich tissues except the kidneys
tissue uptake at 4 h (in vivo [7]): 0.73 ± 0.12 %ID/g

CPTA-VIP: VIP conjugated with the chelating agent CPTA, [4-(1,4,8,11-tetraazacyclotetradec-1-yl)methyl] benzoic acid (HSDAVFTDNYTRLRKQMAVKKYLNSILN; ends and bridges not checked; also: conjugated with chelator CPTA, position not given here; UniProt P01282 125-152, looked up)
muscle relaxivity (fall in resting IAS tension) [8]: 35%

I-123 labeled VIP: I-123 labeled vasoactive intestinal peptide (VIP)
positive scans in patients with colonic adenocarcinoma (colonic adenocarcinoma; 17 patients): 17 out of 17
lung uptake (colonic adenocarcinoma; human, in vivo): approximately 25%
effectiveness in imaging colorectal adenocarcinoma (colonic adenocarcinoma; patients): 100%
effectiveness in imaging in patients with liver metastases (colonic adenocarcinoma; patients): 83%
imaging of lung metastases (colonic adenocarcinoma; patients): 66%
